Experimental data reported in patent US11103520B2, “Analogs of N-acetlyglucosamine and uses thereof” (THE REGENTS OF THE UNIVERSITY OF CALIFORNIA, priority 2014, dated 2021).
“Also recorded” adds a separate entry of the source.

What was measured:
[1] = tested on: pediatric treatment-resistant inflammatory bowel disease patients; details: oral GlcNAc; remission for approximately 2 years; cited from earlier work
[2] = tested on: non-obese diabetic mice; details: oral, initiated prior to disease onset; cited from earlier work
[3] = tested on: peripheral blood mononuclear cells; details: induced by MS-associated MGAT1 variant; cited from earlier work
[4] = tested on: animals; details: in vivo; cited from earlier work
[5] = tested on: myelin-reactive T cells; details: T cells treated in vitro, transferred into naïve mice; cited from earlier work
[6] = tested on: N-glycan branching; details: in vitro; cited from earlier work
[7] = tested on: 2D2 TCR transgenic mice; assay: EAE in 2D2 TCR transgenic mice, oral GlcNAc after disease onset; assay type: in vivo, mouse; details: oral 0.25 mg/ml after onset
From the text: Day 1 indicates the first day of disease onset. […] Mean clinical scores per group daily were compared by the Mann-Whitney U test.

[8] = tested on: human T cells; assay: CD25 and CD69 expression in human T cells stimulated with α-CD3; assay type: cell-based; details: FIG. 11
From the text: FIG. 12A is a graph that plots CD25 expression (%) in human T cells as a function of α-CD3 and GlcNAc/GlcNAc 6-acetate concentrations. FIG. 12B is a graph that plots CD69 expression (%) in human T cells as a function of α-CD3 and GlcNAc/GlcNAc 6-acetate concentrations.

[9] = cited from earlier work
[10] = tested on: human T cells; assay: N-glycan branching (L-PHA) in human T cells; assay type: cell-based; details: PMA/Ionomycin stimulation, FIG. 9 and FIG. 10
From the text: Relative L-PHA (%) in human T cells is plotted as a function of PMA/Ionomycin stimulation and GlcNAc/GlcNAc-diacetate concentrations.
Relative L-PHA (%) in human T cells is plotted as a function of PMA/Ionomycin stimulation and GlcNAc/GlcNAc-monoacetate concentrations.

[11] = tested on: mice immunized with MOG 35-55 peptide; assay: Oral GlcNAc in mice immunized with MOG 35-55 peptide, splenocytes re-stimulated in culture; assay type: in vivo, mouse
Description: The data plotted in FIG. 6A was obtained from experiments in which splenocytes were isolated from mice and cultured in vitro with the indicated concentrations of GlcNAc under resting or activated (1000 ng/ml anti-CD3) conditions for 3 days, stained with L-PHA-FITC in triplicate, and analyzed by FACS. The data plotted in FIGS. 6B-6E were obtained from experiments in which mice were immunized with the indicated amounts of MOG 35-55 peptide emulsified in Complete Freund's adjuvant and treated with GlcNAc at the same time by supplementing their drinking water at 0.25 mg/ml GlcNAc and control mice that were immunized with the indicated amounts of MOG 35-55 peptide but not treated with GlcNAc. […] Although not wishing to be bound by any particular theory, the reduction in CD25^+T cell blasts at the highest antigen concentrations is consistent with the explanation that the reduction is secondary to the observed increase in cell death, consistent with antigen-induced cell death at high antigen stimulation levels.

[12] = tested on: C57BL/6 mice; assay: EAE in C57BL/6 mice, oral GlcNAc after disease onset; assay type: in vivo, mouse
Description: FIG. 7A is a graph that plots mean clinical EAE score as a function of days after disease onset for control and treated groups of mice. […] Error bars in FIGS. 7A and 7D represent the means±S.E. of duplicate or greater values unless otherwise stated.
The data plotted in FIG. 7A was obtained from experiments in which EAE was induced in C57BL/6 mice by immunization with MOG 35-55 peptide emulsified in Complete Freund's adjuvant and pertussis toxin. GlcNAc mice were treated orally with GlcNAc by supplementing the drinking water at 0.25 mg/ml starting on the second day after disease onset and continued for the duration of the study and control mice were given drinking water not supplemented with GlcNAc (n=9 per control group, n=7 per GlcNAc group). Day 1 indicates the first day of disease onset. Mice were examined daily for clinical signs of EAE over the next 30 days with the observer blinded to treatment conditions and scored daily as follows: 0, no disease; 1, loss of tail tone; 2, hindlimb weakness; 3, hindlimb paralysis; 4, forelimb weakness or paralysis and hindlimb paralysis; 5, moribund or dead. Mean clinical scores per group daily were compared by the Mann-Whitney U test. […] Error bars in FIGS. 7A and 7D represent the means±S.E. of duplicate or greater values unless otherwise stated.

[13] = tested on: humans; details: supplement use for many years; cited from earlier work
[14] = tested on: C57/BL6 mice immunized with MOG35-55 peptide; assay: Oral treatment, N-glycan branching in mouse T cells in vivo; details: 1 mg/mL in drinking water, five days post immunization, CD4+ blasts
Description: Ten-week old female C57/BL6 were immunized with 100 μg of MOG35-55 peptide in a 1:1 mixture with CFA. Groups were non-immunized (n=2), immunized and given drinking water alone (n=3), immunized and given GlcNAc at 1 mg/mL in drinking water (n=3), or immunized and given G-6-A at 1 mg/mL in drinking water (n=3). Splenocytes were harvested five days post immunization, and labeled for FACS analysis. For GlcNAc and G-6-A treated groups, each mouse drank an average of 3 mL per day. Data shown is gated on a blasting region on CD4^+ cells.

[15] = tested on: mouse T cells; assay: Mouse splenocyte cultures (L-PHA, CD69, CFSE proliferation); assay type: cell-based; details: splenocytes, anti-CD3 1 μg/mL; FIG. 15
Description: FIG. 15A is a graph illustrating splenocytes from C57/BL6 female (n=6, 8-24 weeks old) or male (n=5, 10-13 weeks old) mice after culturing in the presence of anti-CD3 (1 μg/mL). Cells were collected on day 3, and labeled for FACS analysis. FIG. 15B is a series of graphs illustrating in vitro cultures of splenocytes either un-stimulated (resting) or anti-CD3 (1 μg/mL) activated. G-6-A (20 mM) and or GlcNAc (40 mM). Cells were harvested over a three-day time course, and labeled for FACS analysis. FIG. 15C is a graph illustrating in vitro stimulated splenocytes (anti-CD3 at 1 μg/mL) that were cultured for three-days and labeled for FACS analysis of the T cell activation marker CD69 at the time points indicated. […] Splenocytes were labeled with 1 uM of CFSE prior to in vitro anti-CD3 (1 μg/mL) activation for three-days. Overlaying histograms is on gated CD4+ cells.
Cells were collected on day 3, and labeled for FACS analysis. Data shown is on gated CD4^+ cells, and percent changes of L-PHA MFI were normalized to a media only control.
G-6-A (20 mM) and or GlcNAc (40 mM). Cells were harvested over a three-day time course, and labeled for FACS analysis. Data shown is on gated CD4^+ cells, and percent changes of L-PHA MFI were normalized to a media only control.
Data shown is on gated CD4^+ cells. […]

[16] = oral, 0.25 mg/ml in drinking water, 14 days, vs control mice

With `CC(=O)N[C@@H](C=O)[C@@H](O)[C@H](O)[C@H](O)CO` [GlcNAc, 2-(acetylamino)-2-deoxy-D-glucose] as the compound, how does the “children in clinical remission” value [1] read?
Its value is 8 of 12.

What about the spontaneous autoimmune diabetes [2] of the same compound?
Its spontaneous autoimmune diabetes is “suppress spontaneous autoimmune diabetes”.

And the “N-glycan branching deficiency and T cell hyper-proliferation” value [3]?
The value was “rescued N-glycan branching deficiency and T cell hyper-proliferation”.

What about the “toxicity in chronic animal studies” value [4] of the same compound?
The value was “no associated toxicity”.

And the “EAE after adoptive transfer of treated T cells” value [5]?
Its value is “inhibited EAE when these cells were adoptively transferred into naïve mice”.

And the “N-glycan branching with increasing concentration” value [6]?
The value was “only enhance N-glycan branching”.

And the “clinical course of EAE, moderate-severe disease” value ([7]; 2D2 TCR transgenic mice scored ≤4)?
Its value is “attenuates the clinical course of EAE in moderate-severe disease”.

And the “clinical course of EAE, lethal disease” value ([7]; 2D2 TCR transgenic mice with scores of 5)?
Its value is “not disease with rapid lethal progression”.

And the “CD25 expression (%)” value [8]?
Its value is “N-acetylglucosamine 6-acetate inhibits CD25 and CD69 expression to greater effect than GlcNAc”.

And the “CD69 expression (%)” value [8]?
The value was “N-acetylglucosamine 6-acetate inhibits CD25 and CD69 expression to greater effect than GlcNAc”.

What about the membrane permeability [9] of the same compound?
The membrane permeability was “low membrane permeability (poor cell entry)”.

What about the “N-glycan branching (Relative L-PHA (%))” value [10] of the same compound?
The value was “increases N-glycan branching to greater effect than N-acetylglucosamine-diacetate compounds; also recorded: N-acetylglucosamine 6-acetate increases N-glycan branching to greater effect than GlcNAc”.

And the “secretion of Th1 (IFN-γ, TNF-α) and Th17 (IL-17, IL-22) cytokines” value ([11]; oral treatment in vivo, re-stimulation with MOG 35-55 in vitro)?
Its value is “inhibited secretion of Th1 cytokines (IFN-γ and TNF-α) and Th17 cytokines (IL-17 and IL-22)”.

What about the “CD4+CD25+FoxP3+ regulatory T cells” value [11, 16] of the same compound?
Its value is “promoted development of CD4^+CD25^+FoxP3^+ regulatory T cells”.

What about the “CD25+ T cells upon re-stimulation with MOG 35-55 peptide” value [11, 16] of the same compound?
The value was “reduced CD25^+T cells”.

What about the “clinical course of EAE (mean clinical score)” value ([12]; C57BL/6 mice, oral 0.25 mg/ml in drinking water from second day after onset) of the same compound?
Its value is “attenuates the clinical course of experimental autoimmune encephalomyelitis (EAE)”.

And the “production of pro-inflammatory cytokines IFN-γ, TNF-α, IL-17, IL-22” value ([12]; re-stimulation with MOG 35-55 peptide in vitro)?
Its value is “inhibited production of pro-inflammatory cytokines IFN-γ, TNF-α, IL-17, and IL-22”.

What about the “N-glycan branching in T cells (L-PHA staining)” value ([12]; representative mice at peak of disease) of the same compound?
Its value is “increased N-glycan branching in T cells”.

What about the “CD25+ T cells” value ([12]; representative mice at peak of disease, vs control mice) of the same compound?
The value was “significant reduction in CD25^+T cells”.

What about the “adverse effects in humans” value [13] of the same compound?
The value was “without reported adverse effects”.

Which membrane permeability [9] does the source give for `CC(=O)N[C@H]1C(OC(C)=O)O[C@H](COC(C)=O)[C@@H](OC(C)=O)[C@@H]1OC(C)=O` (stereo partly shown) [GlcNAc-tetraacetate, N-acetylglucosamine tetraacetate] here?
The membrane permeability was “increased membrane permeability as compared with GlcNAc”.

Which “N-glycan branching (Relative L-PHA (%))” value [10] does the source give for `CC(=O)N[C@H]1C(O)O[C@H](CO)[C@@H](OC(C)=O)[C@@H]1OC(C)=O` (stereo partly shown) [N-acetylglucosamine 3,4 diacetate] here?
The value was “GlcNAc increases N-glycan branching to greater effect than N-acetylglucosamine-diacetate compounds”.

Which “N-glycan branching (Relative L-PHA (%))” value [10] does the source give for `CC(=O)N[C@H]1C(O)O[C@H](COC(C)=O)[C@@H](O)[C@@H]1OC(C)=O` (stereo partly shown) [N-acetylglucosamine 3,6 diacetate] here?
The value was “GlcNAc increases N-glycan branching to greater effect than N-acetylglucosamine-diacetate compounds”.

With `CC(=O)N[C@H]1C(O)O[C@H](CO)[C@@H](O)[C@@H]1OC(C)=O` (stereo partly shown) [N-acetylglucosamine 3-acetate] as the compound, how does the “N-glycan branching (Relative L-PHA (%))” value [10] read?
Its value is “N-acetylglucosamine 6-acetate increases N-glycan branching to greater effect than GlcNAc or N-acetylglucosamine 3-acetate”.

For `CC(=O)N[C@H]1C(O)O[C@H](COC(C)=O)[C@@H](OC(C)=O)[C@@H]1O` (stereo partly shown) [N-acetylglucosamine 4,6 diacetate], which “N-glycan branching (Relative L-PHA (%))” value [10] is on record?
The value was “GlcNAc increases N-glycan branching to greater effect than N-acetylglucosamine-diacetate compounds”.

Which results are given for `CC(=O)N[C@H]1C(O)O[C@H](COC(C)=O)[C@@H](O)[C@@H]1O` (stereo partly shown) [N-acetylglucosamine 6-acetate]?
N-glycan branching in mouse T cells in vivo [14]: increases N-glycan branching in mouse T cells in vivo; CD25 expression (%) [8]: inhibits CD25 and CD69 expression to greater effect than GlcNAc; CD69 expression (%) [8]: inhibits CD25 and CD69 expression to greater effect than GlcNAc; N-glycan branching (Relative L-PHA (%)) [10]: increases N-glycan branching to greater effect than GlcNAc or N-acetylglucosamine 3-acetate; effectiveness in mouse T cells [15]: more effective than GlcNAc in mouse T cells

For `N[C@H]1C(O)O[C@H](CO)[C@@H](O)[C@@H]1O` (stereo partly shown) [glucosamine], which “N-glycan branching with increasing concentration” value [6] is on record?
The value was “initially increasing but subsequently decreasing N-glycan branching”.
